Where two headings read alike, the source gives them in different places.
How the values were obtained:
[1] = system: HepG2 cells; assay: Triglyceride (TAG) measurement assay, one week steatosis model; format: cell-based, human; conditions: for activity at 10 µM: Homo sapiens
How it was run: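 HepG2 cells steatosis-induced for one week in high-glucose DMEM/10% FBS with 10 μg/ml insulin and 10 μM T0901317, media changed at days 0, 3 and 5, with 10 μM test compound throughout. Triglyceride measured colorimetrically (OD 570 nm); viability by MTT.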

[2] = In vivo toxicological study in rats: plasma chemistry; set-up: species or system rats of the Wistar strain
Experimental: Forty-two male and forty-two female rats of the Wistar strain were allocated to the study. Three groups of three males and three females were given doses of 30, 100 and 300 mg/kg of target compounds (Table 8). The vehicle was 1.5 w/w % HPMC, 1.5 w/w % PS80 in 10 mM PBS, pH 7 and dose volume were 5 mL/kg. The animals were acclimatised at least 14 day prior to the study and exposed to a 12 hours light, 12 hours dark light cycle. The formulations were administered via oral gavage. Administration occurred once daily in the morning for seven consecutive days. Blood for scheduled haematology and plasma chemistry were taken at necropsy. For plasma chemistry, 0.6 ml blood (lithium heparin) per animal and for haematology, 0.5 ml blood (K2EDTA) per animal. The blood and plasma were analysed using Exigo analyzer and Vetscan equipment. Blood samples were kept in room temperature […] after collection and mixing. The blood samples were analysed as whole blood within 60 min of collection. The VetScan analyser was calibrated with calibration samples of known plasma levels of each parameter before start of analysis, occasionally during the analysis period of study samples and after completed analyses (Table 10).

[3] = 168 h, HepG2, 10 μM, one week steatosis induce media, Control 100.00, read-out: TAG (%)
[4] = HepG2, 168 h, ratio between TAG content and cell viability, Control 100.0, read-out: TAG/cell viability
[5] = female, 30 mg/kg oral daily 7 d
[6] = female, 100 mg/kg oral daily 7 d
[7] = female, 300 mg/kg oral daily 7 d

N#Cc1c(NC(=O)c2cccc3ccccc23)sc2c1CCCC2 [JNK-IN-5A, N-(3-cyano-4,5,6,7-tetrahydrobenzo[b]thiophen-2-yl)-1-naphthamide]
activity at 10 µM [1, 3]: 33%
activity at 10 µM [1, 4]: 58.4%

COc1ccc(C(=O)Nc2sc3c(c2C#N)CCCCC3)cc1OC [PKL-A135, N-(3-cyano-5,6,7,8-tetrahydro-4H-cyclohepta[b]thiophen-2-yl)-3,4-dimethoxy-benzamide]
activity at 10 µM [1, 3]: 49.1%
activity at 10 µM [1, 4]: 77.6%
ALB [2, 5]: 56 g/L
ALP [2, 5]: 117 U/L
ALT [2, 5]: 23 U/L
AMY [2, 5]: 564 U/L
BUN [2, 5]: 6.0 mmol/L
CA [2, 5]: 2.91 mmol/L
CRE [2, 5]: 31 µmol/L
GLOB [2, 5]: 8 g/L
GLU [2, 5]: 8.1 mmol/L
K+ [2, 5]: 4.6 mmol/L
NA+ [2, 5]: 141 mmol/L
PHOS [2, 5]: 2.30 mmol/L
TBIL [2, 5]: 5.3 µmol/L
TP [2, 5]: 64 g/L
ALB [2, 6]: 59 g/L
ALP [2, 6]: 126 U/L
ALT [2, 6]: 23 U/L
AMY [2, 6]: 589 U/L
BUN [2, 6]: 5.7 mmol/L
CA [2, 6]: 2.96 mmol/L
CRE [2, 6]: 44 µmol/L
GLOB [2, 6]: 11 g/L
GLU [2, 6]: 7.9 mmol/L
K+ [2, 6]: 4.4 mmol/L
NA+ [2, 6]: 140 mmol/L
PHOS [2, 6]: 2.34 mmol/L
TBIL [2, 6]: 5.0 µmol/L
TP [2, 6]: 71 g/L
ALB [2, 7]: 59 g/L
ALP [2, 7]: 156 U/L
ALT [2, 7]: 20 U/L
AMY [2, 7]: 590 U/L
BUN [2, 7]: 5.3 mmol/L
CA [2, 7]: 3.00 mmol/L
CRE [2, 7]: 41 µmol/L
GLOB [2, 7]: 9 g/L
GLU [2, 7]: 7.8 mmol/L
K+ [2, 7]: 4.6 mmol/L
NA+ [2, 7]: 142 mmol/L
PHOS [2, 7]: 2.91 mmol/L
TBIL [2, 7]: 5.3 µmol/L
TP [2, 7]: 67 g/L
ALB ([2]; male, 30 mg/kg oral daily 7 d): 50 g/L
ALP ([2]; male, 30 mg/kg oral daily 7 d): 234 U/L
ALT ([2]; male, 30 mg/kg oral daily 7 d): 33 U/L
AMY ([2]; male, 30 mg/kg oral daily 7 d): 757 U/L
BUN ([2]; male, 30 mg/kg oral daily 7 d): 5.6 mmol/L
CA ([2]; male, 30 mg/kg oral daily 7 d): 3.01 mmol/L
CRE ([2]; male, 30 mg/kg oral daily 7 d): 39 µmol/L
GLOB ([2]; male, 30 mg/kg oral daily 7 d): 15 g/L
GLU ([2]; male, 30 mg/kg oral daily 7 d): 8.5 mmol/L
K+ ([2]; male, 30 mg/kg oral daily 7 d): 4.80 mmol/L
NA+ ([2]; male, 30 mg/kg oral daily 7 d): 140 mmol/L
PHOS ([2]; male, 30 mg/kg oral daily 7 d): 2.20 mmol/L
TBIL ([2]; male, 30 mg/kg oral daily 7 d): 5.0 µmol/L
TP ([2]; male, 30 mg/kg oral daily 7 d): 65 g/L
ALB ([2]; male, 100 mg/kg oral daily 7 d): 50 g/L
ALP ([2]; male, 100 mg/kg oral daily 7 d): 259 U/L
ALT ([2]; male, 100 mg/kg oral daily 7 d): 25 U/L
AMY ([2]; male, 100 mg/kg oral daily 7 d): 770 U/L
BUN ([2]; male, 100 mg/kg oral daily 7 d): 5.6 mmol/L
CA ([2]; male, 100 mg/kg oral daily 7 d): 2.95 mmol/L
CRE ([2]; male, 100 mg/kg oral daily 7 d): 36 µmol/L
GLOB ([2]; male, 100 mg/kg oral daily 7 d): 12 g/L
GLU ([2]; male, 100 mg/kg oral daily 7 d): 8.9 mmol/L
K+ ([2]; male, 100 mg/kg oral daily 7 d): 4.83 mmol/L
NA+ ([2]; male, 100 mg/kg oral daily 7 d): 138 mmol/L
PHOS ([2]; male, 100 mg/kg oral daily 7 d): 2.51 mmol/L
TBIL ([2]; male, 100 mg/kg oral daily 7 d): 4.7 µmol/L
TP ([2]; male, 100 mg/kg oral daily 7 d): 61 g/L
ALB ([2]; male, 300 mg/kg oral daily 7 d): 50 g/L
ALP ([2]; male, 300 mg/kg oral daily 7 d): 275 U/L
ALT ([2]; male, 300 mg/kg oral daily 7 d): 28 U/L
AMY ([2]; male, 300 mg/kg oral daily 7 d): 835 U/L
BUN ([2]; male, 300 mg/kg oral daily 7 d): 5.7 mmol/L
CA ([2]; male, 300 mg/kg oral daily 7 d): 2.98 mmol/L
CRE ([2]; male, 300 mg/kg oral daily 7 d): 38 µmol/L
GLOB ([2]; male, 300 mg/kg oral daily 7 d): 13 g/L
GLU ([2]; male, 300 mg/kg oral daily 7 d): 9.0 mmol/L
K+ ([2]; male, 300 mg/kg oral daily 7 d): 5.2 mmol/L
NA+ ([2]; male, 300 mg/kg oral daily 7 d): 140 mmol/L
PHOS ([2]; male, 300 mg/kg oral daily 7 d): 2.64 mmol/L
TBIL ([2]; male, 300 mg/kg oral daily 7 d): 5.0 µmol/L
TP ([2]; male, 300 mg/kg oral daily 7 d): 63 g/L

COc1ccccc1NC(=O)N1CCc2c(sc(NC(=O)c3cccc4ccccc34)c2C#N)C1 [PKL-A152]
ratio between TAG content and cell viability [1]: low ratio between TAG content and cell viability
activity at 10 µM [1, 3]: 10.8%
activity at 10 µM [1, 4]: 24.5%
TAG/cell viability ([1]; ratio as printed in text with %): 24.5%
ALB [2, 5]: 56 g/L
ALP [2, 5]: 84 U/L
ALT [2, 5]: 23 U/L
AMY [2, 5]: 548 U/L
BUN [2, 5]: 4.9 mmol/L
CA [2, 5]: 2.90 mmol/L
CRE [2, 5]: 44 µmol/L
GLOB [2, 5]: 7 g/L
GLU [2, 5]: 8.0 mmol/L
K+ [2, 5]: 2.9 mmol/L
NA+ [2, 5]: 148 mmol/L
PHOS [2, 5]: 2.28 mmol/L
TBIL [2, 5]: 4.0 µmol/L
TP [2, 5]: 64 g/L
ALB [2, 6]: 58 g/L
ALP [2, 6]: 162 U/L
ALT [2, 6]: 20 U/L
AMY [2, 6]: 573 U/L
BUN [2, 6]: 6.0 mmol/L
CA [2, 6]: 2.87 mmol/L
CRE [2, 6]: 48 µmol/L
GLOB [2, 6]: 8 g/L
GLU [2, 6]: 7.8 mmol/L
K+ [2, 6]: 4.5 mmol/L
NA+ [2, 6]: 139 mmol/L
PHOS [2, 6]: 2.38 mmol/L
TBIL [2, 6]: 4.7 µmol/L
TP [2, 6]: 66 g/L
ALB [2, 7]: 56 g/L
ALP [2, 7]: 134 U/L
ALT [2, 7]: 21 U/L
AMY [2, 7]: 539 U/L
BUN [2, 7]: 5.2 mmol/L
CA [2, 7]: 2.92 mmol/L
CRE [2, 7]: 51 µmol/L
GLOB [2, 7]: 8 g/L
GLU [2, 7]: 7.7 mmol/L
K+ [2, 7]: 4.8 mmol/L
NA+ [2, 7]: 140 mmol/L
PHOS [2, 7]: 2.39 mmol/L
TBIL [2, 7]: 4.7 µmol/L
TP [2, 7]: 64 g/L
ALB ([2]; male, 30 mg/kg oral daily 7 d): 50 g/L
ALP ([2]; male, 30 mg/kg oral daily 7 d): 272 U/L
ALT ([2]; male, 30 mg/kg oral daily 7 d): 30 U/L
AMY ([2]; male, 30 mg/kg oral daily 7 d): 837 U/L
BUN ([2]; male, 30 mg/kg oral daily 7 d): 5.7 mmol/L
CA ([2]; male, 30 mg/kg oral daily 7 d): 2.99 mmol/L
CRE ([2]; male, 30 mg/kg oral daily 7 d): 42 µmol/L
GLOB ([2]; male, 30 mg/kg oral daily 7 d): 13 g/L
GLU ([2]; male, 30 mg/kg oral daily 7 d): 8.0 mmol/L
K+ ([2]; male, 30 mg/kg oral daily 7 d): 4.6 mmol/L
NA+ ([2]; male, 30 mg/kg oral daily 7 d): 140 mmol/L
PHOS ([2]; male, 30 mg/kg oral daily 7 d): 2.11 mmol/L
TBIL ([2]; male, 30 mg/kg oral daily 7 d): 4.0 µmol/L
TP ([2]; male, 30 mg/kg oral daily 7 d): 63 g/L
ALB ([2]; male, 100 mg/kg oral daily 7 d): 51 g/L
ALP ([2]; male, 100 mg/kg oral daily 7 d): 267 U/L
ALT ([2]; male, 100 mg/kg oral daily 7 d): 25 U/L
AMY ([2]; male, 100 mg/kg oral daily 7 d): 838 U/L
BUN ([2]; male, 100 mg/kg oral daily 7 d): 5.7 mmol/L
CA ([2]; male, 100 mg/kg oral daily 7 d): 2.98 mmol/L
CRE ([2]; male, 100 mg/kg oral daily 7 d): 42 µmol/L
GLOB ([2]; male, 100 mg/kg oral daily 7 d): 12 g/L
GLU ([2]; male, 100 mg/kg oral daily 7 d): 8.2 mmol/L
K+ ([2]; male, 100 mg/kg oral daily 7 d): 4.7 mmol/L
NA+ ([2]; male, 100 mg/kg oral daily 7 d): 141 mmol/L
PHOS ([2]; male, 100 mg/kg oral daily 7 d): 2.57 mmol/L
TBIL ([2]; male, 100 mg/kg oral daily 7 d): 5.0 µmol/L
TP ([2]; male, 100 mg/kg oral daily 7 d): 63 g/L
ALB ([2]; male, 300 mg/kg oral daily 7 d): 49 g/L
ALP ([2]; male, 300 mg/kg oral daily 7 d): 244 U/L
ALT ([2]; male, 300 mg/kg oral daily 7 d): 28 U/L
AMY ([2]; male, 300 mg/kg oral daily 7 d): 854 U/L
BUN ([2]; male, 300 mg/kg oral daily 7 d): 5.5 mmol/L
CA ([2]; male, 300 mg/kg oral daily 7 d): 3.04 mmol/L
CRE ([2]; male, 300 mg/kg oral daily 7 d): 51 µmol/L
GLOB ([2]; male, 300 mg/kg oral daily 7 d): 14 g/L
GLU ([2]; male, 300 mg/kg oral daily 7 d): 8.6 mmol/L
K+ ([2]; male, 300 mg/kg oral daily 7 d): 4.5 mmol/L
NA+ ([2]; male, 300 mg/kg oral daily 7 d): 143 mmol/L
PHOS ([2]; male, 300 mg/kg oral daily 7 d): 2.47 mmol/L
TBIL ([2]; male, 300 mg/kg oral daily 7 d): 4.7 µmol/L
TP ([2]; male, 300 mg/kg oral daily 7 d): 63 g/L

From patent publication US20260234159A1, “SMALL MOLECULE TREATMENT OF FATTY LIVER DISEASE AND HCC” (SCANDIEDGE THERAPEUTICS AB, priority 2023, published 2026)
